Test results: PubChem BioAssay (NCI)
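1) Cells in 96-well plates. 2) Compound, 48 h, 5 concentrations. 3) Linear interpolation between surrounding doses. 4) Unreached endpoint = highest concentration. Definition used: TGI = concentration required for complete inhibition of growth.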

Key:
Assay in all cases: NCI tumour cell line growth inhibition, 48 h
[1] = tested on: IGROV1 ovarian
[2] = tested on: DMS 114 small cell lung
[3] = tested on: M19-MEL melanoma
[4] = tested on: RXF 393 renal
[5] = tested on: HCT-116 colon
[6] = tested on: SF-268 CNS
[7] = tested on: SF-539 CNS
[8] = tested on: SK-MEL-28 melanoma
[9] = tested on: SK-MEL-5 melanoma
[10] = tested on: CCRF-CEM leukemia
[11] = tested on: KM12 colon
[12] = tested on: COLO 205 colon
[13] = tested on: RPMI-8226 leukemia
[14] = tested on: MOLT-4 leukemia
[15] = tested on: HL-60(TB) leukemia
[16] = tested on: TK-10 renal
[17] = tested on: HT29 colon
[18] = tested on: KM20L2 colon
[19] = tested on: ACHN renal
[20] = tested on: NCI-H226 lung
[21] = tested on: HCC-2998 colon
[22] = tested on: UACC-62 melanoma
[23] = tested on: HOP-92 NSCLC
[24] = tested on: SNB-75 CNS
[25] = tested on: SK-MEL-2 melanoma
[26] = tested on: NCI-H23 lung
[27] = tested on: SNB-19 CNS
[28] = tested on: OVCAR-3 ovarian
[29] = tested on: UO-31 renal
[30] = tested on: LXFL 529 NSCLC
[31] = tested on: SF-295 CNS
[32] = tested on: UACC-257 melanoma
[33] = tested on: SW-620 colon
[34] = tested on: HOP-62 NSCLC
[35] = tested on: NCI-H460 lung
[36] = tested on: A549 NSCLC
[37] = tested on: OVCAR-8 ovarian
[38] = tested on: M14 melanoma
[39] = tested on: EKVX NSCLC
[40] = tested on: CAKI-1 renal
[41] = tested on: NCI/ADR-RES ovarian
[42] = tested on: MALME-3M melanoma
[43] = tested on: MCF7 breast
[44] = tested on: U251 CNS
[45] = tested on: MDA-MB-231 breast
[46] = tested on: SN12C renal
[47] = tested on: BT-549 breast
[48] = tested on: PC-3 prostate
[49] = tested on: SR leukemia
[50] = tested on: LOX IMVI melanoma
[51] = tested on: OVCAR-4 ovarian
[52] = tested on: HCT-15 colon
[53] = tested on: A498 renal
[54] = tested on: DU-145 prostate
[55] = tested on: MDA-N
[56] = tested on: SK-OV-3 ovarian
[57] = tested on: K-562 leukemia
[58] = tested on: MDA-MB-435
[59] = tested on: NCI-H522 lung
[60] = tested on: T-47D breast
[61] = tested on: OVCAR-5 ovarian
[62] = tested on: HS 578T breast
[63] = tested on: 786-0 renal

CN=c1ssc(=S)n1C(C)C
TGI [1]: 46.4 µM | TGI [2]: 20.3 µM | TGI [3]: 28.6 µM | TGI [4]: 22.4 µM | TGI [5]: > 100 µM | TGI [6]: > 100 µM | TGI [7]: 86.6 µM | TGI [8]: 9.24 µM | TGI [9]: > 100 µM | TGI [10]: 11.8 µM | TGI [11]: > 100 µM | TGI [12]: 39.4 µM | TGI [13]: 60.3 µM | TGI [14]: 51.7 µM | TGI [15]: 14.7 µM | TGI [16]: > 100 µM | TGI [17]: 16.2 µM | TGI [18]: 41.4 µM | TGI [19]: 95.5 µM | TGI [20]: > 100 µM | TGI [21]: 27.8 µM | TGI [22]: 31.1 µM | TGI [23]: 67.1 µM | TGI [24]: 52.3 µM | TGI [25]: > 100 µM | TGI [26]: 80.7 µM | TGI [27]: > 100 µM | TGI [28]: 35 µM | TGI [29]: > 100 µM | TGI [30]: 19.9 µM | TGI [31]: > 100 µM | TGI [32]: 53.5 µM | TGI [33]: 20.6 µM | TGI [34]: 43.7 µM | TGI [35]: > 100 µM | TGI [36]: > 100 µM | TGI [37]: > 100 µM | TGI [38]: 79 µM | TGI [39]: > 100 µM | TGI [40]: 88.2 µM

Cc1cc(=O)oc2cc3oc(N(C)c4ccccc4)nc(=O)c3cc12
TGI [1]: > 100 µM | TGI [41]: > 100 µM | TGI [42]: > 100 µM | TGI [4]: > 100 µM | TGI [5]: > 100 µM | TGI [6]: > 100 µM | TGI [7]: > 100 µM | TGI [8]: > 100 µM | TGI [43]: > 100 µM | TGI [9]: > 100 µM | TGI [10]: > 100 µM | TGI [44]: > 100 µM | TGI [45]: > 100 µM | TGI [11]: > 100 µM | TGI [12]: > 100 µM | TGI [13]: > 100 µM | TGI [14]: > 100 µM | TGI [46]: > 100 µM | TGI [47]: > 100 µM | TGI [15]: > 100 µM | TGI [16]: > 100 µM | TGI [17]: > 100 µM | TGI [48]: > 100 µM | TGI [49]: > 100 µM | TGI [50]: > 100 µM | TGI [51]: > 100 µM | TGI [19]: > 100 µM | TGI [20]: > 100 µM | TGI [21]: > 100 µM | TGI [52]: > 100 µM | TGI [22]: > 100 µM | TGI [23]: > 100 µM | TGI [24]: > 100 µM | TGI [53]: > 100 µM | TGI [25]: > 100 µM | TGI [26]: > 100 µM | TGI [54]: > 100 µM | TGI [27]: > 100 µM | TGI [55]: > 100 µM | TGI [28]: > 100 µM | TGI [29]: > 100 µM | TGI [56]: > 100 µM | TGI [57]: > 100 µM | TGI [58]: > 100 µM | TGI [31]: > 100 µM | TGI [59]: > 100 µM | TGI [32]: > 100 µM | TGI [33]: > 100 µM | TGI [34]: > 100 µM | TGI [60]: > 100 µM | TGI [61]: > 100 µM | TGI [35]: > 100 µM | TGI [36]: > 100 µM | TGI [62]: > 100 µM | TGI [37]: > 100 µM | TGI [63]: > 100 µM | TGI [38]: > 100 µM | TGI [39]: > 100 µM | TGI [40]: > 100 µM
